Laboratory results from the supplement of paper PMC3068080.

Key:
[1] = system: TGFBR2 mRNA; test: remaining TGFBR2 mRNA relative to control siRNA (off-target knock-down) (fraction of control); quantification method: branched DNA; higher = less knock-down
Procedure: (§1)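 Screen-hit siRNA duplexes (19-mer plus 3' dTdT overhang) were transiently transfected into HaCaT cells in 12-well plates. After 48 h, TGFBR1 and TGFBR2 mRNA were quantified by branched DNA assay (QuantiGene, normalised to HPRT1) or by SYBR qPCR (normalised to HPRT1/SMAD4). Values are the remaining mRNA relative to control-siRNA-transfected cells; 1-2 biological replicates.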

[2] = system: TGFBR1 mRNA; test: remaining TGFBR1 mRNA relative to control siRNA (off-target knock-down) (fraction of control); quantification method: branched DNA; higher = less knock-down
Procedure: as §1

CUCCUUGGCACACUUCUCATT
remaining TGFBR2 mRNA [1]: 0.34
remaining TGFBR1 mRNA [2]: 0.93

CUGACCAUGCAGAGGAUGATT
remaining TGFBR2 mRNA [1]: 0.82
remaining TGFBR1 mRNA [2]: 0.83

CUUGACUUCUGGGGUCCACTT
remaining TGFBR2 mRNA [1]: 0.94
remaining TGFBR1 mRNA [2]: 0.92

CUUGGUACAGCACAUGGUUTT
remaining TGFBR2 mRNA [1]: 0.82
remaining TGFBR1 mRNA [2]: 0.55

GAAGGUGUGAGUGAGGUCATT
remaining TGFBR2 mRNA [1]: 1.17
remaining TGFBR1 mRNA [2]: 0.19

GAGCAGCUCUCGUAGCCAUTT
remaining TGFBR2 mRNA [1]: 0.33
remaining TGFBR1 mRNA [2]: 1.01

GAGGUUGUUGUUGAGCUCGTT
remaining TGFBR2 mRNA [1]: 0.73
remaining TGFBR1 mRNA [2]: 0.96

GAGUGACCUGCUCCUCUAATT
remaining TGFBR2 mRNA [1]: 0.61
remaining TGFBR1 mRNA [2]: 1.01

GAUGAAGAAGAGCGCAGCATT
remaining TGFBR2 mRNA [1]: 1.08
remaining TGFBR1 mRNA [2]: 1.27

GAUGGACUGCAUACAUUGGTT
remaining TGFBR2 mRNA [1]: 0.87
remaining TGFBR1 mRNA [2]: 0.29

GAUGUUCCACAAAUUCCACTT
remaining TGFBR2 mRNA [1]: 0.47
remaining TGFBR1 mRNA [2]: 0.85

GCUGAAUGAGGGUAGUCUUTT
remaining TGFBR2 mRNA [1]: 0.64
remaining TGFBR1 mRNA [2]: 0.28

GGAAGUGUCAUGGAAGGUGTT
remaining TGFBR2 mRNA [1]: 0.29
remaining TGFBR1 mRNA [2]: 0.7

GGGCUGUCAAUGACAGCUUTT
remaining TGFBR2 mRNA [1]: 0.6
remaining TGFBR1 mRNA [2]: 0.82

GGGUUUUCCCAGUCACGACTT
remaining TGFBR2 mRNA [1]: 0.54
remaining TGFBR1 mRNA [2]: 0.91

GGUGCCAGGCAUUUUAUCCTT
remaining TGFBR2 mRNA [1]: 0.9
remaining TGFBR1 mRNA [2]: 1.06

GUUCAGCAGCAGCAGACCATT
remaining TGFBR2 mRNA [1]: 0.79
remaining TGFBR1 mRNA [2]: 1.16

GUUCUUGGGCUAUGUCCAATT
remaining TGFBR2 mRNA [1]: 0.32
remaining TGFBR1 mRNA [2]: 0.89

UAACGUGUGUAUGUCUGGCTT
remaining TGFBR2 mRNA [1]: 0.69
remaining TGFBR1 mRNA [2]: 0.3

UACAUGAUGUAAACGAUAATT
remaining TGFBR2 mRNA [1]: 0.54
remaining TGFBR1 mRNA [2]: 0.44

UACUUAAAGCCAGGGCCACTT
remaining TGFBR2 mRNA [1]: 0.77
remaining TGFBR1 mRNA [2]: 1.32

UAGCAUUCAUUUUCCGUGGTT
remaining TGFBR2 mRNA [1]: 0.27
remaining TGFBR1 mRNA [2]: 0.72

UAUAACUCUCAGGGGAUAUTT
remaining TGFBR2 mRNA [1]: 0.4
remaining TGFBR1 mRNA [2]: 1.07

UAUAGUCCACAGACACGCUTT
remaining TGFBR2 mRNA [1]: 0.97
remaining TGFBR1 mRNA [2]: 0.92

UAUCUCAUGAAAGCGCUUCTT
remaining TGFBR2 mRNA [1]: 0.25
remaining TGFBR1 mRNA [2]: 1.12

UAUGCUCCUCUUCCUGUUCTT
remaining TGFBR2 mRNA [1]: 0.57
remaining TGFBR1 mRNA [2]: 1.43

UCAACAAGCUAAGUCUGCCTT
remaining TGFBR2 mRNA [1]: 0.72
remaining TGFBR1 mRNA [2]: 1.1

UCAAGCCCAGAGGUGUCAUTT
remaining TGFBR2 mRNA [1]: 1
remaining TGFBR1 mRNA [2]: 1.24

UCAAGGUGGACAAAGCUCUTT
remaining TGFBR2 mRNA [1]: 0.29
remaining TGFBR1 mRNA [2]: 0.74

UCAAGUGCAGUAGUAGAUGTT
remaining TGFBR2 mRNA [1]: 0.51
remaining TGFBR1 mRNA [2]: 1.09

UCAAGUGCAUCUCCACAGCTT
remaining TGFBR2 mRNA [1]: 0.23
remaining TGFBR1 mRNA [2]: 1.29

UCACCUUGCAGGAAGGAAGTT
remaining TGFBR2 mRNA [1]: 0.71
remaining TGFBR1 mRNA [2]: 1.26

UCAUAAGCAUGCUCCACACTT
remaining TGFBR2 mRNA [1]: 0.62
remaining TGFBR1 mRNA [2]: 0.14

UCAUAGCUCUGGCAUCGUCTT
remaining TGFBR2 mRNA [1]: 0.41
remaining TGFBR1 mRNA [2]: 1.11

UCCAAGUCGAGAAGAGACCTT
remaining TGFBR2 mRNA [1]: 0.46
remaining TGFBR1 mRNA [2]: 0.9

UCCACGAUGAAGGGAUGCUTT
remaining TGFBR2 mRNA [1]: 0.7
remaining TGFBR1 mRNA [2]: 1.06

UCCAGCUGCAUUCCUCGCUTT
remaining TGFBR2 mRNA [1]: 0.35
remaining TGFBR1 mRNA [2]: 0.75

UCCAGCUGUUUCGUUCCUCTT
remaining TGFBR2 mRNA [1]: 0.36
remaining TGFBR1 mRNA [2]: 0.85
